For this assay, the system named is BDF1 mice, L1210 leukemia sc, survival T/C. Nature of the assay: NCI In Vivo Anticancer Drug Screen. Data for tumor model L1210 Leukemia (subcutaneous) in B6D2F1 (BDF1) mice. Conditions: endpoint: median survival time, higher = longer survival. An outline of the steps: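 Expressed as T/C: measurement in compound-treated, tumor-bearing mice relative to vehicle-treated control mice, based on survival or tumor size.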

Where [1] appears, read: dose: 3.0 mg/kg/injection, schedule: Q01DX Z (oral), vehicle: methylcellulose (MC).
[2] abbreviates: dose: 5.0 mg/kg/injection, schedule: Q01DX Z (sc), vehicle: methylcellulose (MC).
[3] abbreviates: dose: 39.0 mg/kg/injection, schedule: Q01DX Z (oral), vehicle: methylcellulose (MC).
Where [4] appears, read: dose: 39.0 mg/kg/injection, schedule: Q01DX Z (sc), vehicle: methylcellulose (MC).

“And” between values parts separate entries of the source, which are not always exact repeats. Identical values can stand only once. Toxic doses and inconclusive results are not listed.

As for `Cn1cnc([N+](=O)[O-])c1Sc1ncnc2nc[nH]c12`, the T/C is, setting by setting: under setting [1], 100 % of control; under setting [2], 100 % of control; (dose: 8.4 mg/kg/injection, schedule: Q01DX Z (sc), vehicle: methylcellulose (MC)) 100 % of control; (dose: 14.0 mg/kg/injection, schedule: Q01DX Z (sc), vehicle: methylcellulose (MC)) 100 % of control; (dose: 23.0 mg/kg/injection, schedule: Q01DX Z (oral), vehicle: methylcellulose (MC)) 100 % of control; (dose: 28.0 mg/kg/injection, schedule: Q01DX Z (sc), vehicle: methylcellulose (MC)) 110 % of control. Moreover, the T/C was 100 % of control under setting [3]; 100 % of control under setting [4]; 115 % of control (dose: 47.0 mg/kg/injection, schedule: Q01DX Z (sc), vehicle: methylcellulose (MC)); 100 % of control (dose: 65.0 mg/kg/injection, schedule: Q01DX Z (oral), vehicle: methylcellulose (MC)); 120 % of control (dose: 78.0 mg/kg/injection, schedule: Q01DX Z (sc), vehicle: methylcellulose (MC)); 110 % of control (dose: 360.0 mg/kg/injection, schedule: Q01DX Z (sc), vehicle: methylcellulose (MC)). The T/C reads like this: (dose: 500.0 mg/kg/injection, schedule: Q01DX Z (oral), vehicle: methylcellulose (MC)) 155 % of control; (dose: 500.0 mg/kg/injection, schedule: Q01DX Z (sc), vehicle: methylcellulose (MC)) 122 % of control; (dose: 600.0 mg/kg/injection, schedule: Q01DX Z (sc), vehicle: methylcellulose (MC)) 105 % of control.

For the compound `Nc1nc(=S)c2ncn(C3CC(O)C(CO)O3)c2[nH]1` (configuration not stated), the T/C (dose: 9.0 mg/kg/injection, schedule: Q02DX005 (sc), vehicle: saline) was 160 % of control; the T/C (dose: 12.5 mg/kg/injection, schedule: Q02DX005 (sc), vehicle: saline) is 177 % of control; the T/C (dose: 18.0 mg/kg/injection, schedule: Q02DX005 (sc), vehicle: saline) is 162 % of control; the T/C (dose: 25.0 mg/kg/injection, schedule: Q02DX005 (sc), vehicle: saline) was 177 % of control; the T/C (dose: 37.0 mg/kg/injection, schedule: Q02DX005 (sc), vehicle: saline) is 152 % of control; the T/C (dose: 50.0 mg/kg/injection, schedule: Q01DX009 (sc), vehicle: saline) is 100 % of control and 103 % of control. In addition, the T/C reads like this: (dose: 50.0 mg/kg/injection, schedule: Q02DX005 (sc), vehicle: saline) 177 % of control; (dose: 100.0 mg/kg/injection, schedule: Q01DX009 (sc), vehicle: saline) 105 % of control and 108 % of control; (dose: 100.0 mg/kg/injection, schedule: Q02DX005 (sc), vehicle: saline) 150 % of control; (dose: 150.0 mg/kg/injection, schedule: Q02DX005 (sc), vehicle: saline) 120 % of control; (dose: 200.0 mg/kg/injection, schedule: Q01DX009 (sc), vehicle: saline) 122 % of control; (dose: 400.0 mg/kg/injection, schedule: Q01DX009 (sc), vehicle: saline) 155 % of control. For the same compound, the T/C (dose: 600.0 mg/kg/injection, schedule: Q02DX005 (sc), vehicle: saline) is 158 % of control.

As for `Nc1nc(=S)c2[nH]cnc2[nH]1`, the T/C was 100 % of control and 102 % of control (dose: 0.37 mg/kg/injection, schedule: Q01DX009 (sc), vehicle: other); 104 % of control and 110 % of control (dose: 0.47 mg/kg/injection, schedule: Q01DX Z (sc), vehicle: methylcellulose (MC)); 100 % of control (dose: 0.65 mg/kg/injection, schedule: Q01DX Z (sc), vehicle: methylcellulose (MC)); 110 % of control and 111 % of control (dose: 0.75 mg/kg/injection, schedule: Q01DX009 (sc), vehicle: other); 100 % of control and 120 % of control (dose: 0.78 mg/kg/injection, schedule: Q01DX Z (sc), vehicle: methylcellulose (MC)); 100 % of control (dose: 1.0 mg/kg/injection, schedule: Q01DX Z (sc), vehicle: other). Besides, the T/C reads like this: (dose: 1.08 mg/kg/injection, schedule: Q01DX Z (sc), vehicle: methylcellulose (MC)) 109 % of control; (dose: 1.3 mg/kg/injection, schedule: Q01DX Z (sc), vehicle: methylcellulose (MC)) 118 % of control; (dose: 1.5 mg/kg/injection, schedule: Q01DX009 (sc), vehicle: other) 150 % of control; (dose: 1.5 mg/kg/injection, schedule: Q## X009 (sc), vehicle: other) 150 % of control; (dose: 1.8 mg/kg/injection, schedule: Q01DX Z (oral), vehicle: methylcellulose (MC)) 109 % of control; (dose: 2.0 mg/kg/injection, schedule: Q02DX Z (sc), vehicle: other) 118 % of control. For the same compound, the T/C reads like this: (dose: 2.16 mg/kg/injection, schedule: Q01DX Z (oral), vehicle: methylcellulose (MC)) 109 % of control; (dose: 2.5 mg/kg/injection, schedule: Q02DX009 (sc), vehicle: other) 152 % of control; (dose: 2.5 mg/kg/injection, schedule: Q02DX Z (sc), vehicle: other) 155 % of control; (dose: 3.0 mg/kg/injection, schedule: Q01DX009 (sc), vehicle: other) 150 % of control and 152 % of control and 156 % of control; under setting [1], 118 % of control; (dose: 3.0 mg/kg/injection, schedule: Q01DX Z (sc), vehicle: methylcellulose (MC)) 154 % of control. Further, the T/C by setting is: (dose: 3.0 mg/kg/injection, schedule: Q## X009 (sc), vehicle: other) 152 % of control; (dose: 3.6 mg/kg/injection, schedule: Q01DX Z (oral), vehicle: methylcellulose (MC)) 109 % of control; (dose: 3.6 mg/kg/injection, schedule: Q01DX Z (sc), vehicle: methylcellulose (MC)) 150 % of control; (dose: 4.0 mg/kg/injection, schedule: Q02DX Z (sc), vehicle: other) 159 % of control; under setting [2], 154 % of control; (dose: 5.0 mg/kg/injection, schedule: Q02DX009 (sc), vehicle: other) 165 % of control. The T/C is, setting by setting: (dose: 5.0 mg/kg/injection, schedule: Q02DX Z (sc), vehicle: other) 172 % of control; (dose: 6.0 mg/kg/injection, schedule: Q01DX009 (sc), vehicle: other) 155 % of control and 162 % of control; (dose: 6.0 mg/kg/injection, schedule: Q01DX Z (oral), vehicle: methylcellulose (MC)) 113 % of control; (dose: 6.0 mg/kg/injection, schedule: Q01DX Z (sc), vehicle: methylcellulose (MC)) 150 % of control; (dose: 8.0 mg/kg/injection, schedule: Q01DX Z (sc), vehicle: other) 154 % of control; (dose: 8.0 mg/kg/injection, schedule: Q02DX Z (sc), vehicle: other) 154 % of control. Further, the T/C reads like this: (dose: 8.4 mg/kg/injection, schedule: Q01DX Z (oral), vehicle: methylcellulose (MC)) 163 % of control; (dose: 10.0 mg/kg/injection, schedule: Q01DX Z (oral), vehicle: methylcellulose (MC)) 118 % of control; (dose: 10.0 mg/kg/injection, schedule: Q01DX Z (sc), vehicle: methylcellulose (MC)) 150 % of control; (dose: 10.0 mg/kg/injection, schedule: Q02DX009 (sc), vehicle: other) 160 % of control; (dose: 10.0 mg/kg/injection, schedule: Q02DX Z (sc), vehicle: other) 166 % of control; (dose: 16.0 mg/kg/injection, schedule: Q02DX Z (sc), vehicle: other) 150 % of control. Also, the T/C is 118 % of control (dose: 17.0 mg/kg/injection, schedule: Q01DX Z (oral), vehicle: methylcellulose (MC)); 150 % of control (dose: 20.0 mg/kg/injection, schedule: Q02DX Z (sc), vehicle: other); 104 % of control (dose: 28.0 mg/kg/injection, schedule: Q01DX Z (oral), vehicle: methylcellulose (MC)); 154 % of control (dose: 32.0 mg/kg/injection, schedule: Q02DX Z (sc), vehicle: other); 154 % of control under setting [3]; 155 % of control (dose: 40.0 mg/kg/injection, schedule: Q02DX Z (sc), vehicle: other). Besides, the T/C (dose: 47.0 mg/kg/injection, schedule: Q01DX Z (oral), vehicle: methylcellulose (MC)) is 109 % of control.

For `C[C@]12CCC(=O)C=C1CC[C@H]1[C@@H]3CC[C@](O)(C(=O)CO)[C@@]3(C)C[C@H](O)[C@@]12F`, the T/C is, setting by setting: under setting [4], 100 % of control; (dose: 65.0 mg/kg/injection, schedule: Q01DX Z (sc), vehicle: methylcellulose (MC)) 100 % of control; (dose: 108.0 mg/kg/injection, schedule: Q01DX Z (sc), vehicle: methylcellulose (MC)) 100 % of control; (dose: 180.0 mg/kg/injection, schedule: Q01DX Z (sc), vehicle: methylcellulose (MC)) 100 % of control; (dose: 300.0 mg/kg/injection, schedule: Q01DX Z (sc), vehicle: methylcellulose (MC)) 100 % of control and 118 % of control; (dose: 833.0 mg/kg/injection, schedule: Q01DX Z (sc), vehicle: methylcellulose (MC)) 112 % of control.

(Values after PubChem BioAssay AID250 (DTP/NCI, 2004).)
